Values after ≈ are worked out from the molar mass of the structure shown.
Legend:
Assay type in all cases: cell-based
H. infulenzae T196 = experiment: MIC, Muller Hinton agar with sheep blood, 5% CO2 (Test Example 2); settings: Haemophilus, Muller Hinton agar + sheep blood 5% by volume
H. infulenzae IID985 = experiment: as above; settings: Haemophilus, Muller Hinton agar + sheep blood 5% by volume
H. infulenzae IID988 = experiment: as above; settings: Haemophilus, Muller Hinton agar + sheep blood 5% by volume
A. pleuropneumoniae YN = experiment: MIC, Muller Hinton agar with Fields enrichment, 5% CO2 (Test Example 4); settings: Actinobacillus pleuropneumoniae, Muller Hinton agar + Fields enrichment 5% by volume
Method: (§1) According to the standard method of Japanese Society of Chemotherapy, the amycolamicin was measured for antimicrobial spectrum against bacteria causing pneumonia in domestic livestock other than those listed in Table 3 in the Muller Hinton agar medium supplemented with Fields enrichment (5% by volume) by the multiple dilution method in an atmosphere of 5% by volume CO2.

[1] = test system: A. pleuropneumoniae HPT-1; experiment: as above; settings: Actinobacillus pleuropneumoniae, HPT1, Muller Hinton agar + Fields enrichment 5% by volume
Method: as §1

[2] = test system: A. pleuropneumoniae SHP-17; experiment: as above; settings: Actinobacillus pleuropneumoniae, SHP17, Muller Hinton agar + Fields enrichment 5% by volume
Method: as §1

A. pleuropneumoniae M-1 = experiment: as above; settings: Actinobacillus pleuropneumoniae, M1, Muller Hinton agar + Fields enrichment 5% by volume
Method: as §1

[3] = test system: Actinobacillus pleuropneumoniae NB001; experiment: as above; settings: Muller Hinton agar + Fields enrichment 5% by volume
Method: as §1

A. pleuropneumoniae 6H-8 = experiment: as above; settings: Actinobacillus pleuropneumoniae, 6H8, Muller Hinton agar + Fields enrichment 5% by volume
Method: as §1

[4] = test system: A. pleuropneumoniae O-223; experiment: as above; settings: Actinobacillus pleuropneumoniae, O223, Muller Hinton agar + Fields enrichment 5% by volume
Method: as §1

A. pleuropneumoniae Hi-1 = experiment: as above; settings: Actinobacillus pleuropneumoniae, HI1, Muller Hinton agar + Fields enrichment 5% by volume
Method: as §1

[5] = test system: A. pleuropneumoniae Shop1421; experiment: as above; settings: Actinobacillus pleuropneumoniae, Muller Hinton agar + Fields enrichment 5% by volume
Method: as §1

[6] = test system: A. pleuropneumoniae CH-2(H4024); experiment: as above; settings: Actinobacillus pleuropneumoniae, Muller Hinton agar + Fields enrichment 5% by volume
Method: as §1

A. pleuropneumoniae 7H-3 = experiment: as above; settings: Actinobacillus pleuropneumoniae, 7H3, Muller Hinton agar + Fields enrichment 5% by volume
Method: as §1

[7] = test system: Histophilus somni 23N2359; experiment: as above; settings: Muller Hinton agar + Fields enrichment 5% by volume
Method: as §1

A. pleuropneumoniae CH-1 = experiment: as above; settings: Actinobacillus pleuropneumoniae, CH1, Muller Hinton agar + Fields enrichment 5% by volume
Method: as §1

M. haemolytica N811 = experiment: MIC, brain heart infusion agar, multiple dilution method (Test Example 3); settings: Mannheimia haemolytica, brain heart infusion agar medium
Method: (§2) According to the standard method of Japanese Society of Chemotherapy, the amycolamicin was measured for antimicrobial spectrum against bacteria causing pneumonia in domestic livestock in the brain heart infusion agar medium by the multiple dilution method.

P. multocida M-17 = experiment: as above; settings: Pasteurella multocida, M17, brain heart infusion agar medium
Method: as §2

[8] = test system: Pasteurella multocida No. 6; experiment: as above; settings: brain heart infusion agar medium
Method: as §2

P. multocida Kobe = experiment: as above; settings: Pasteurella multocida, brain heart infusion agar medium
Method: as §2

P. multocida TS-8 = experiment: as above; settings: Pasteurella multocida, TS8, brain heart infusion agar medium
Method: as §2

[9] = test system: Mannheimia haemolytica N791; experiment: as above; settings: brain heart infusion agar medium
Method: as §2

[10] = test system: Haemophilus infulenzae IID938; experiment: MIC, Muller Hinton agar with sheep blood, 5% CO2 (Test Example 2); settings: Muller Hinton agar + sheep blood 5% by volume
H. infulenzae IID987 = experiment: as above; settings: Haemophilus, Muller Hinton agar + sheep blood 5% by volume
H. infulenzae IID986 = experiment: as above; settings: Haemophilus, Muller Hinton agar + sheep blood 5% by volume
[11] = test system: Streptococcus pneumoniae S-223; experiment: as above; settings: S223, Muller Hinton agar + sheep blood 5% by volume
S. aureus Smith = experiment: MIC, Muller Hinton agar, multiple dilution method (Test Example 1); settings: Staphylococcus aureus, Muller Hinton agar medium
Method: (§3) According to the standard method of Japanese Society of Chemotherapy, the amycolamicin was measured for antimicrobial spectrum against various microorganisms including drug-resistant bacteria (e.g., methicilline resistant bacteria and vancomycin resistant bacteria) in the Muller Hinton agar medium by the multiple dilution method.

[12] = test system: Ent. faecalis NCTC12203(VRE); experiment: as above; settings: Enterococcus faecalis, Muller Hinton agar medium
Method: as §3

S. aureus MRSA No.5 = experiment: as above; settings: Staphylococcus aureus, Muller Hinton agar medium
Method: as §3

[13] = test system: Ent. faecium NCTCI12204(VRE); experiment: as above; settings: Enterococcus faecium, Muller Hinton agar medium
Method: as §3

S. aureus MS16526(MRSA) = experiment: as above; settings: Staphylococcus aureus, Muller Hinton agar medium
Method: as §3

[14] = test system: Ent. faecalis NCTC12201(VRE); experiment: as above; settings: Enterococcus faecalis, Muller Hinton agar medium
Method: as §3

[15] = test system: Klebsiella pneumoniae PC1602; experiment: as above; settings: Muller Hinton agar medium
Method: as §3

S. aureus TY-04282(MRSA) = experiment: as above; settings: Staphylococcus aureus, Muller Hinton agar medium
Method: as §3

[16] = test system: Ent faecium NCTCI12202(VRE); experiment: as above; settings: Enterococcus, Muller Hinton agar medium
Method: as §3

S. aureus MS9610 = experiment: as above; settings: Staphylococcus aureus, Muller Hinton agar medium
Method: as §3

[17] = test system: Staphylococcus aureus FDA209P; experiment: as above; settings: Muller Hinton agar medium
Method: as §3

S. aureus MRSA No.17 = experiment: as above; settings: Staphylococcus aureus, Muller Hinton agar medium
Method: as §3

Escherichia coli NIHJ = experiment: as above; settings: Muller Hinton agar medium
Method: as §3

[18] = test system: Enterococcus faecalis JCM 5803; experiment: as above; settings: JCM5803, Muller Hinton agar medium
Method: as §3

Ent. faecium JCM 5804 = experiment: as above; settings: Enterococcus faecium, JCM5804, Muller Hinton agar medium
Method: as §3

E. coli K-12 = experiment: as above; settings: Escherichia coli, K12, Muller Hinton agar medium
Method: as §3

Question: `C=C1CCC(OC2CC(O)(C(C)NC(=O)c3[nH]c(C)c(Cl)c3Cl)C(O)C(C)O2)C2C=CC(C)C(C(=O)C3=C(O)C(C(C)C)N(C4OC(C)C(OC(N)=O)C(OC(C)=O)C4OC)C3=O)C12` (stereo not drawn) [amycolamicin] was tested. Which MIC (H. infulenzae T196) did it give?
Answer: 0.2 µg/mL

Question: What about the MIC (H. infulenzae IID985) of the same compound?
Answer: 0.78 µg/mL

Question: What about the MIC (H. infulenzae IID988) of the same compound?
Answer: 0.78 µg/mL

Question: And the MIC (A. pleuropneumoniae YN)?
Answer: 0.78 µg/mL

Question: What about the MIC [1] of the same compound?
Answer: 1.56 µg/mL

Question: What about the MIC [2] of the same compound?
Answer: 1.56 µg/mL

Question: What about the MIC (A. pleuropneumoniae M-1) of the same compound?
Answer: 0.78 µg/mL

Question: And the MIC [3]?
Answer: 1.56 µg/mL

Question: And the MIC (A. pleuropneumoniae 6H-8)?
Answer: 1.56 µg/mL

Question: And the MIC [4]?
Answer: 1.56 µg/mL

Question: What about the MIC (A. pleuropneumoniae Hi-1) of the same compound?
Answer: 3.13 µg/mL

Question: What about the MIC [5] of the same compound?
Answer: 3.13 µg/mL

Question: What about the MIC [6] of the same compound?
Answer: 1.56 µg/mL

Question: And the MIC (A. pleuropneumoniae 7H-3)?
Answer: 1.56 µg/mL

Question: What about the MIC [7] of the same compound?
Answer: 0.2 µg/mL

Question: What about the MIC (A. pleuropneumoniae CH-1) of the same compound?
Answer: 1.56 µg/mL

Question: What about the MIC (M. haemolytica N811) of the same compound?
Answer: 0.78 µg/mL (≈ 0.83 µM)

Question: And the MIC (P. multocida M-17)?
Answer: 0.78 µg/mL (≈ 0.83 µM)

Question: What about the MIC [8] of the same compound?
Answer: 1.56 µg/mL (≈ 1.66 µM)

Question: What about the MIC (P. multocida Kobe) of the same compound?
Answer: 0.78 µg/mL (≈ 0.83 µM)

Question: What about the MIC (P. multocida TS-8) of the same compound?
Answer: 0.78 µg/mL (≈ 0.83 µM)

Question: What about the MIC [9] of the same compound?
Answer: 0.78 µg/mL (≈ 0.83 µM)

Question: And the MIC [10]?
Answer: 0.78 µg/mL

Question: What about the MIC (H. infulenzae IID987) of the same compound?
Answer: 0.78 µg/mL

Question: What about the MIC (H. infulenzae IID986) of the same compound?
Answer: 0.78 µg/mL

Question: What about the MIC [11] of the same compound?
Answer: 0.39 µg/mL

Question: What about the MIC (S. aureus Smith) of the same compound?
Answer: 0.39 µg/mL (≈ 0.415 µM)

Question: And the MIC [12]?
Answer: 0.2 µg/mL (≈ 0.213 µM)

Question: And the MIC (S. aureus MRSA No.5)?
Answer: 0.39 µg/mL (≈ 0.415 µM)

Question: And the MIC [13]?
Answer: 0.78 µg/mL (≈ 0.83 µM)

Question: And the MIC (S. aureus MS16526(MRSA))?
Answer: 0.39 µg/mL (≈ 0.415 µM)

Question: What about the MIC [14] of the same compound?
Answer: 0.1 µg/mL (≈ 0.106 µM)

Question: What about the MIC [15] of the same compound?
Answer: 6.25 µg/mL (≈ 6.65 µM)

Question: And the MIC (S. aureus TY-04282(MRSA))?
Answer: 0.39 µg/mL (≈ 0.415 µM)

Question: And the MIC [16]?
Answer: 0.78 µg/mL (≈ 0.83 µM)

Question: What about the MIC (S. aureus MS9610) of the same compound?
Answer: 0.39 µg/mL (≈ 0.415 µM)

Question: What about the MIC [17] of the same compound?
Answer: 0.39 µg/mL (≈ 0.415 µM)

Question: What about the MIC (S. aureus MRSA No.17) of the same compound?
Answer: 0.39 µg/mL (≈ 0.415 µM)

Question: And the MIC (Escherichia coli NIHJ)?
Answer: 12.5 µg/mL (≈ 13.3 µM)

Question: And the MIC [18]?
Answer: 0.2 µg/mL (≈ 0.213 µM)

Question: What about the MIC (Ent. faecium JCM 5804) of the same compound?
Answer: 0.78 µg/mL (≈ 0.83 µM)

Question: And the MIC (E. coli K-12)?
Answer: 12.5 µg/mL (≈ 13.3 µM)
